# Experiments:
# [1] = tested on: total translation in BY4743 and YKO strains; assay type: cell-based, Saccharomyces cerevisiae
# [2] = tested on: mitochondrial translation in BY4743 and YKO strains; assay type: cell-based, Saccharomyces cerevisiae
# [3] = tested on: Saccharomyces cerevisiae homozygous diploid YKO strains and parental strain BY4743; assay type: cell-based
# [4] = tested on: Saccharomyces cerevisiae homozygous diploid YKO strains and parental strain BY4743; assay type: cell-based; remark: listed apart in the source
structure (smiles),measurement,setting,value
"C/C=C\C(=O)O[C@@H]1C[C@H]2O[C@@H]3C=C(C)C(=O)C[C@]3(C)[C@]1(C)[C@]21CO1 [T-cin, trichothecin]",inhibition of the cytosolic translation rate of BY4743,[1],80-90%
same,effect on mitochondrial translation,[2],able to inhibit mitochondrial translation
same,effect of the 2 μM screening concentration on growth (parental strain),[3],non-lethal
same,effect of the screening level of toxin on the parental strain,[4],lethal

# Source: patent US20110061129A1 (priority 2008, published 2011)
